In paper PMC4503722, “Novel Phenotypic Outcomes Identified for a Public Collection of Approved Drugs from a Publicly Accessible Panel of Assays” (PLoS ONE, 2015):
Counter-ions that a name gives are not always drawn. Like-named read-outs stand apart in the source and are kept apart here.

Legend:
Assay in all cases: cells
NCI-H716 cells = assay type: cell-based, Human
Colo320 = assay type: cell-based
DLD-1 = assay type: cell-based
SNU-C1 = assay type: cell-based
INS-1E cells = assay type: cell-based, rat
HCT116 = assay type: cell-based
SW480 = assay type: cell-based
[1] = tested on: endothelial tube formation in co-cultures of ECFCs and ADSCs treated with VEGF; assay type: cell-based, human
RKO = assay type: cell-based; settings: RKO
HeLa cells = assay type: cell-based; settings: HeLa, read-out: CellCycle G2/M
[2] = tested on: nuclear β-catenin in C2C12 cells; assay type: cell-based
[3] = tested on: HCT116 cells treated with a GSK3β inhibitor; assay type: cell-based
HT-29 = assay type: cell-based
[4] = Homo sapiens, COLO 320, read-out: Basal_Viability ATP Colo 320
[5] = Homo sapiens, read-out: Basal_Viability ATP RKO
[6] = Homo sapiens, S2 Table, 20 = no response at highest concentration

COc1cc(NC(C)CCCN)c2ncccc2c1 (stereo not drawn) [Primaquine]
EC50 (NCI-H716 cells; Homo sapiens, NCI-H716, read-out: GLP 1 Secretion): > 10 µM
IC50 (Colo320; [4]): > 20 µM
IC50 (DLD-1; Homo sapiens, DLD-1, read-out: Basal_Viability ATP DLD-1): > 20 µM
IC50 (SNU-C1; Homo sapiens, SNU-C1, read-out: Basal_Viability ATP SNU-C1): > 20 µM
EC50 (INS-1E cells; Rattus norvegicus, INS-1E, read-out: Insulin Secretion): > 10 µM
IC50 (HCT116; Homo sapiens, HCT-116, read-out: Basal_Viability ATP HCT116): 1.88 µM
IC50 (SW480; Homo sapiens, SW480, read-out: Basal_Viability ATP SW480): > 20 µM
IC50 ([1]; Homo sapiens, read-out: Anti-Angiogenesis): > 10 µM
IC50 (RKO; [5]): > 20 µM
EC50 (HeLa cells; Homo sapiens): > 10 µM
EC50 ([2]; Mus musculus, C2C12, read-out: Wnt Pathway): > 10 µM
IC50 ([3]; Homo sapiens, HCT-116, read-out: GSK3b inh pretreated_Viability ATP HCT116): > 20 µM

O=c1[nH]cc(F)c(=O)[nH]1 [Fluorouracil]
EC50 (NCI-H716 cells; Homo sapiens, NCI-H716; read-out: GLP 1 Secretion): > 10 µM
IC50 (Colo320; Homo sapiens, basal, Colo 320, read-out: Basal_Viability ATP Colo 320): > 20 µM
IC50 (DLD-1; Homo sapiens, DLD-1, basal, DLD-1, read-out: Basal_Viability ATP DLD-1): > 20 µM
IC50 (SNU-C1; Homo sapiens, SNU-C1, basal, SNU-C1, read-out: Basal_Viability ATP SNU-C1): > 20 µM
EC50 (INS-1E cells; Rattus norvegicus, INS-1E; read-out: Insulin Secretion): > 10 µM
IC50 (SW480; Homo sapiens, SW480, basal, SW480, read-out: Basal_Viability ATP SW480): > 20 µM
IC50 ([1]; Homo sapiens; read-out: Anti-Angiogenesis): > 10 µM
IC50 (RKO; Homo sapiens, basal, read-out: Basal_Viability ATP RKO): > 20 µM
EC50 (HeLa cells; [6]): > 10 µM
EC50 ([2]; Mus musculus, C2C12, S2 Table, module primary assay, 20 / 20.1 codes per legend, read-out: Wnt Pathway): > 10 µM
IC50 (HT-29; Homo sapiens, basal, HT-29, read-out: Basal_Viability ATP HT-29): > 20 µM

N=C(N)NN=C(/C=C/c1ccc([N+](=O)[O-])o1)/C=C/c1ccc([N+](=O)[O-])o1 [Nitrovin]
EC50 (NCI-H716 cells; S2 Table; module primary assay; 20 / 20.1 codes per legend; read-out: GLP 1 Secretion): > 10 µM
IC50 (DLD-1; basal, DLD-1, read-out: Basal_Viability ATP DLD-1): > 20 µM
IC50 (SNU-C1; basal, SNU-C1, read-out: Basal_Viability ATP SNU-C1): 1.35 µM
EC50 (INS-1E cells; S2 Table; module primary assay; 20 / 20.1 codes per legend; read-out: Insulin Secretion): > 10 µM
IC50 (HCT116; basal, HCT116, read-out: Basal_Viability ATP HCT116): 0.136 µM
IC50 (SW480; basal, SW480, read-out: Basal_Viability ATP SW480): 0.0076 µM
IC50 ([1]; S2 Table; module primary assay; 20 = no response at highest concentration, 20.1 = inactive in single concentration testing; read-out: Anti-Angiogenesis): > 10 µM
IC50 (RKO; basal, read-out: Basal_Viability ATP RKO): 0.0128 µM
EC50 (HeLa cells; S2 Table, 20 = no response at highest concentration): > 10 µM
EC50 ([2]; read-out: Wnt Pathway): 0.372 µM
IC50 ([3]; HCT116 pretreated with GSK3b inhibitor, read-out: GSK3b inh pretreated_Viability ATP HCT116): 0.0237 µM

CC(C)n1c(/C=C/C(O)CC(O)CC(=O)O)c(-c2ccc(F)cc2)c2ccccc21 (stereo not drawn) [fluvastatin, reference compound]
EC50 (NCI-H716 cells; Homo sapiens, NCI-H716; read-out: GLP1 sec. EC50): > 10 µM
IC50 (Colo320; [4]): 13 µM
IC50 (Colo320; Homo sapiens, COLO 320, Table 2, 72 h, Cell TiterGlo, non-adherent, 20 coded, read-out: Colo320 viab. IC50): 13 µM
IC50 (DLD-1; Homo sapiens, DLD-1, 72 h, Table 2, 72 h, Cell TiterGlo, non-adherent, 20 coded, read-out: DLD-1 viab. IC50): > 20 µM
IC50 (SNU-C1; Homo sapiens, SNU-C1, 72 h, Table 2, 72 h, Cell TiterGlo, non-adherent, 20 coded, read-out: SNU-C1 viab. IC50): > 20 µM
EC50 (INS-1E cells; Rattus norvegicus, INS-1E; read-out: Ins. sec. EC50): > 10 µM
IC50 (RKO; [5]): 19.2 µM
IC50 (RKO; Homo sapiens, Table 2, 72 h, Cell TiterGlo, non-adherent, 20 coded, read-out: RKO viab. IC50): 19.2 µM
EC50 (HeLa cells; [6]): > 10 µM
EC50 ([2]; Mus musculus, C2C12, Table 2, C2C12, […], 20 / 20.1 coded, read-out: Wnt pot. EC50): > 10 µM
IC50 (HT-29; Homo sapiens, HT-29, Table 2, 72 h, Cell TiterGlo, non-adherent, 20 coded, read-out: HT-29 viab. IC50): > 20 µM

Cc1nc2ccccc2n1Cc1ccc(Cl)cc1 [1-P-chlorobenzyl-2-methylbenzimidazole]
EC50 (NCI-H716 cells; IC50 / EC50; NCI-H716; read-out: GLP 1 Secretion): > 10 µM
IC50 (Colo320; basal, read-out: Basal_Viability ATP Colo 320): 15.2 µM
IC50 (DLD-1; basal, read-out: Basal_Viability ATP DLD-1): > 20 µM
IC50 (SNU-C1; basal, read-out: Basal_Viability ATP SNU-C1): > 20 µM
EC50 (INS-1E cells; IC50 / EC50; INS-1E; read-out: Insulin Secretion): > 10 µM
IC50 (HCT116; basal, read-out: Basal_Viability ATP HCT116): 1.22 µM
IC50 (SW480; basal, read-out: Basal_Viability ATP SW480): 5.33 µM
IC50 ([1]; IC50 / EC50; endothelial tube area, ADSC/ECFC co-culture; read-out: Anti-Angiogenesis): 7.38 µM
EC50 (HeLa cells; IC50 / EC50): > 10 µM
EC50 ([2]; IC50 / EC50, C2C12 beta-catenin translocation, read-out: Wnt Pathway): > 10 µM
IC50 ([3]; GSK3b inhibitor pretreated, read-out: GSK3b inh pretreated_Viability ATP HCT116): 12 µM
IC50 (HT-29; basal, read-out: Basal_Viability ATP HT-29): > 20 µM

CC(C)OC(=O)OCOP(=O)(CO[C@H](C)Cn1cnc2c(N)ncnc21)OCOC(=O)OC(C)C [Tenofovir disoproxil fumarate]
EC50 (NCI-H716 cells; Homo sapiens; IC50 / EC50; NCI-H716; read-out: GLP 1 Secretion): > 10 µM
IC50 (DLD-1; Homo sapiens, DLD-1, basal, read-out: Basal_Viability ATP DLD-1): 19.6 µM
EC50 (INS-1E cells; Rattus norvegicus; IC50 / EC50; INS-1E; read-out: Insulin Secretion): > 10 µM
IC50 (HCT116; Homo sapiens, HCT-116, basal, read-out: Basal_Viability ATP HCT116): > 20 µM
IC50 (SW480; Homo sapiens, SW480, basal, read-out: Basal_Viability ATP SW480): > 20 µM
IC50 ([1]; Homo sapiens, IC50 / EC50; endothelial tube area, ADSC/ECFC co-culture; read-out: Anti-Angiogenesis): 3.84 µM
EC50 (HeLa cells; Homo sapiens, IC50 / EC50): > 10 µM
EC50 ([2]; Mus musculus, C2C12, IC50 / EC50, C2C12 beta-catenin translocation, read-out: Wnt Pathway): > 10 µM
IC50 ([3]; Homo sapiens, HCT-116, GSK3b inhibitor pretreated, read-out: GSK3b inh pretreated_Viability ATP HCT116): > 20 µM
